According to the NIST ThermoML archive (doi:10.1021/je700096m):

Assay: xn = mol fraction of the nth substance listed
Settings: 298.15 K, Liquid

CCCCCl [1-chlorobutane] + CC(=O)N(C)C
mass density [kg/m3]
Settings | x2 = 0.0967 | x2 = 0.2105 | x2 = 0.2984 | x2 = 0.4019 | x2 = 0.499 | x2 = 0.5947 | x2 = 0.6992 | x2 = 0.7997 | x2 = 0.9015
100 kPa | 885.6 | 891.8 | 896.7 | 902.5 | 908.1 | 913.3 | 919.2 | 924.7 | 930.4
2000 kPa | 887.5 | 893.6 | 898.4 | 904.1 | 909.6 | 914.8 | 920.6 | 925.9 | 931.6
4000 kPa | 889.5 | 895.5 | 900.1 | 905.8 | 911.2 | 916.2 | 922.1 | 927.3 | 932.9
6000 kPa | 891.4 | 897.2 | 901.9 | 907.45 | 912.7 | 917.8 | 923.4 | 928.7 | 934.1
8000 kPa | 893.3 | 899.1 | 903.6 | 909 | 914.2 | 919.2 | 924.8 | 930 | 935.5
10000 kPa | 895.3 | 900.9 | 905.3 | 910.9 | 915.8 | 920.7 | 926.2 | 931.3 | 936.7
11900 kPa | – | – | – | 912.3 | – | – | – | – | –
12000 kPa | 897.1 | 902.6 | 907 | – | 917.3 | 922.1 | 927.6 | 932.6 | 937.9
13900 kPa | – | – | – | 913.9 | – | – | – | – | –
14000 kPa | 898.9 | 904.4 | 908.6 | – | 918.8 | 923.5 | 929 | 933.8 | 939
15900 kPa | – | – | – | – | – | – | – | 935.1 | –
16000 kPa | 900.6 | 906.1 | 910.2 | 915.4 | 920.2 | 924.8 | 930.3 | – | 940.3
17900 kPa | 902.3 | 907.6 | – | – | – | – | – | 936.2 | –
18000 kPa | – | – | 911.7 | 916.9 | 921.6 | 926.2 | 931.5 | – | 941.5
20000 kPa | 904.2 | 909.3 | – | – | – | – | 932.9 | 937.7 | 942.6
20100 kPa | – | – | 913.5 | 918.5 | 923.1 | 927.6 | – | – | –

CCCCCl [1-chlorobutane] + CN(C)C=O
mass density [kg/m3]
Settings | x2 = 0.0998 | x2 = 0.1981 | x2 = 0.2988 | x2 = 0.4019 | x2 = 0.501 | x2 = 0.6087 | x2 = 0.7008 | x2 = 0.8163 | x2 = 0.9007
100 kPa | 885.5 | 890.7 | 896.3 | 902.3 | 908.6 | 915.5 | 921.8 | 930.2 | 936.6
2000 kPa | 887.4 | 892.5 | 898 | 903.9 | 910.1 | 917 | 923.1 | 931.5 | 937.8
4000 kPa | 889.3 | 894.4 | 899.8 | 905.7 | 911.7 | 918.5 | 924.6 | 932.8 | 939.1
6000 kPa | 891.2 | 896.3 | 901.6 | 907.3 | 913.3 | 920 | 926 | 934.2 | 940.3
7900 kPa | – | – | – | – | – | – | 927.5 | – | –
8000 kPa | 893.1 | 898.1 | 903.3 | 908.9 | 914.9 | 921.5 | – | 935.4 | 941.5
10000 kPa | 895.1 | 900 | 905.1 | 910.7 | 916.6 | 923 | 928.8 | 936.8 | 942.9
11900 kPa | – | – | – | – | 918 | – | – | – | –
12000 kPa | 896.9 | 901.6 | 906.8 | 912.2 | – | 924.4 | 930.3 | 938.1 | 944.1
14000 kPa | 898.6 | 903.4 | 908.4 | 913.8 | 919.5 | 925.9 | 931.7 | 939.3 | 945.3
16000 kPa | 900.4 | 905.1 | 910.1 | 915.3 | 921 | 927.21 | 933 | 940.6 | 946.4
18000 kPa | 902.1 | 906.8 | 911.7 | 916.7 | 922.4 | – | 934.3 | 941.8 | 947.5
18100 kPa | – | – | – | – | – | 928.6 | – | – | –
20000 kPa | 903.8 | 908.7 | 913.1 | 918.3 | 924 | 930.2 | 935.6 | 943.3 | 949.1
